Assay results: the NIST ThermoML archive (doi:10.1016/j.jct.2019.05.023)
± gives the expanded uncertainty stated by the source.

How the values were obtained:
[1] = 101.3 kPa, Liquid; for speed of sound: Frequency=3 MHz, Single path-length method; for mass density: Vibrating tube method
[2] = xn = mol fraction of the nth substance listed; conditions: 101.3 kPa, Liquid, x1 = 1; for speed of sound: Frequency=3 MHz, Single path-length method; for mass density: Vibrating tube method

speed of sound ([1]; 298.15 K) [m/s]	mass density ([1]; 298.15 K) [kg/m3]	speed of sound ([1]; 303.15 K) [m/s]	mass density ([1]; 303.15 K) [kg/m3]	speed of sound ([1]; 308.15 K) [m/s]	mass density ([1]; 308.15 K) [kg/m3]	speed of sound ([1]; 313.15 K) [m/s]	mass density ([1]; 313.15 K) [kg/m3]	speed of sound ([1]; 318.15 K) [m/s]	mass density ([1]; 318.15 K) [kg/m3]	speed of sound ([2]; 298.15 K) [m/s]	mass density ([2]; 298.15 K) [kg/m3]	speed of sound ([2]; 303.15 K) [m/s]	mass density ([2]; 303.15 K) [kg/m3]	speed of sound ([2]; 308.15 K) [m/s]	mass density ([2]; 308.15 K) [kg/m3]	speed of sound ([2]; 313.15 K) [m/s]	mass density ([2]; 313.15 K) [kg/m3]	speed of sound ([2]; 318.15 K) [m/s]	mass density ([2]; 318.15 K) [kg/m3]	Compound
–	–	–	–	–	–	–	–	–	–	1436 ± 10	1383 ± 2	1425 ± 10	1379 ± 2	1413 ± 10	1374 ± 2	1402 ± 10	1370 ± 2	1391 ± 10	1366 ± 2	CCn1cc[n+](C)c1.O=S(=O)([O-])C(F)(F)F [1-ethyl-3-methylimidazolium trifluoromethanesulfonate] + CCCOCCO
–	–	–	–	–	–	–	–	–	–	1436 ± 10	1383 ± 2	1425 ± 10	1379 ± 2	1413 ± 10	1374 ± 2	1402 ± 10	1370 ± 2	1391 ± 10	1366 ± 2	CCn1cc[n+](C)c1.O=S(=O)([O-])C(F)(F)F [1-ethyl-3-methylimidazolium trifluoromethanesulfonate] + CCOCCO

Second part, the compound before the results:

Compound	speed of sound ([1]; 298.15 K) [m/s]	mass density ([1]; 298.15 K) [kg/m3]	speed of sound ([1]; 303.15 K) [m/s]	mass density ([1]; 303.15 K) [kg/m3]	speed of sound ([1]; 308.15 K) [m/s]	mass density ([1]; 308.15 K) [kg/m3]	speed of sound ([1]; 313.15 K) [m/s]	mass density ([1]; 313.15 K) [kg/m3]	speed of sound ([1]; 318.15 K) [m/s]	mass density ([1]; 318.15 K) [kg/m3]	speed of sound ([2]; 298.15 K) [m/s]	mass density ([2]; 298.15 K) [kg/m3]	speed of sound ([2]; 303.15 K) [m/s]	mass density ([2]; 303.15 K) [kg/m3]	speed of sound ([2]; 308.15 K) [m/s]	mass density ([2]; 308.15 K) [kg/m3]	speed of sound ([2]; 313.15 K) [m/s]	mass density ([2]; 313.15 K) [kg/m3]	speed of sound ([2]; 318.15 K) [m/s]	mass density ([2]; 318.15 K) [kg/m3]
CCn1cc[n+](C)c1.O=S(=O)([O-])C(F)(F)F [1-ethyl-3-methylimidazolium trifluoromethanesulfonate]	1436 ± 10	1383 ± 2	1425 ± 10	1379 ± 2	1413 ± 10	1374 ± 2	1402 ± 10	1370 ± 2	1391 ± 10	1366 ± 2	–	–	–	–	–	–	–	–	–	–
CCOCCO [2-ethoxyethan-1-ol]	1304 ± 10	926 ± 2	1287 ± 10	921 ± 2	1270 ± 10	917 ± 2	1252 ± 10	912 ± 2	1234 ± 10	907 ± 2	–	–	–	–	–	–	–	–	–	–
CCCOCCO [2-propoxyethanol]	1301 ± 10	908 ± 2	1283 ± 10	903 ± 2	1266 ± 10	899 ± 2	1248 ± 10	895 ± 2	1231 ± 10	890 ± 2	–	–	–	–	–	–	–	–	–	–
